Source: patent US20220370604A1, “PEPTIDE VACCINE FOR VIRUS INFECTION” (Vacino Biotech Co., Ltd., priority 2021, published 2022)
Ends that are not written are not given here.

Assays:
[1] = Immunization of mice, total IgG ELISA; assay type: in vivo, BALB/c mice; conditions: for total IgG antibodies: BALB/c mice, ***p<0.001
Method: Immunization of mice. To determine the immunogenicity of the antigen peptides of the present invention, Peptide 1 (SEQ ID NO: 1) of the present invention were used as an example for mice model. Ten (10) female BALB/c mice (7-9 weeks old) supplied by Envigo (Indianapolis, Ind., USA) were intramuscularly injected with 3 shots of 45 μg Peptide 1 (SEQ ID NO: 1) at 2 weeks apart (on Days 0, 14, and 28). Serum was collected before the day of each immunization (on Days−1, 13, and 27). Terminal blood collection was performed on Day 41. Isolated serum was stored at −80° C. until serological analysis. Serum samples collected one day prior to the first injection (on Day−1, pre-dose group) and serum samples collected 2 weeks after the third injection (on Day 41, post-dose group) were used for anti-spike IgG ELISA assay.
Total IgG ELISA. IgG (Total) Mouse Uncoated ELISA kit (Cat. No. 88-50400, Thermo Fisher Scientific, MA, USA) was used for total IgG ELISA according to manufacturer's instruction. Briefly, Nunc™ MaxiSorp™ 9018 ELISA plate was coated with 100 μL/well of capture antibody in Coating Buffer and incubated overnight at 4° C. The plate was washed twice with 400 μL/well Wash Buffer. After the wells were blocked with 250 μL of Blocking Buffer and incubated at room temperature for 2 hours, the plate was washed twice. The standards were serially diluted with Assay Buffer A at 2-fold to make the standard curve. Then, 100 μL/well of Assay Buffer A were added to the blank wells, and 90 μL/well of Assay Buffer A were added to the sample wells. Serum samples were diluted at least 10,000-fold in Assay Buffer A, and then 10 μL/well of the prediluted serum samples were added to the appropriate wells. Fifty (50) μL/well of diluted Detection Antibody were added to all wells. Then, the plate was covered and incubated at room temperature for 2 hours, and washed four times after the incubation. […] After that, 100 μL of Stop Solution were added to each well, and the plate was read at OD 450 nm with a microplate reader. […]

[2] = tested on: CD8^+ T cells in human PBMCs (HLA-A201^+); assay: MHC class I tetramer assay; assay type: cell-based; conditions: human PBMC (HLA-A201^+), 30 nM tetramer, 20 minutes; FIG. 3
Method: Human PBMCs were treated with MHC class I tetramers binding with Peptide 1 (SEQ ID NO: 1) or Peptide 12 (SEQ ID NO: 12) for 20 minutes, co-stained with anti-CD8 antibodies, and then analyzed with a flow cytometer. Results are presented as mean with error bars representing standard error (n=3). *p<0.05.
MHC class I tetramer assay. […] Then, 50 µL of the obtained folded monomer were mixed with the equivalent of 2.1 μL of a 0.2 mg/mL streptavidin-fluorophore and incubated in the dark at 4° C. for at least 1 hour to tetramerized the monomer. The tetramer was diluted to 30 nM in FACS buffer (PBS with 1% v/v BSA and 0.1% v/v NaN3) for staining of human T cells.
Next, around 1-2×10^5 human peripheral blood mononuclear cells (PBMCs, HLA-A201^+) ([…] Technologies Inc, Vancouver, British Columbia, Canada) in FACS buffer were seeded onto a 96-well microplate. The cells were centrifuged at 700×g for 3 minutes, and the supernatant was removed. The cells were resuspended with 40 μL of the diluted tetramer and incubated in the dark at room temperature (RT) for 20 minutes. The cells were washed once in cold FACS buffer and centrifuged at 700×g for 3 minutes. […] The cells were washed twice in cold FACS buffer, resuspended in FACS buffer, and analyzed in a flow cytometer (BD LSRFortessa™X20, Franklin Lakes, N.J., U.S.).

[3] = biological target: HLA-A201 (Homo sapiens, UniProt P04439, D140Y/D185E/D98H/E176V/E277Q/G131W/G231S/I119V/I121R/I166T/I218V/N151K/N90K/P208A/P217A/Q86G/Q94H/R138H/R169H); assay: MHC-peptide binding assay (MHC class I refolding assay, easYmer)
Method: Different concentrations of peptides were incubated with β2-microglobulin light chain subunit and biotin-labeled recombinant HLA-A201 to form peptide-HLA complexes. The peptide-HLA complexes were then captured by streptavidin-coated beads and detected by anti-human β2-microglobulin antibody on flow cytometry. Each data point represents the mean fluorescence intensity corresponding to the number of the formed peptide-HLA complex, and the error bars represent standard deviation (n=2).
Each bar represents the mean fluorescence intensity corresponding to the number of the formed peptide-HLA complex, and the error bars represent standard deviation (n=2).
MHC-peptide binding assay. […] MHC class I refolding assay (easYmer, immunAware Aps, Copenhagen, Denmark) was preformed according to manufacturer's instruction. […] The biotin-labeled peptide-HLA complex was then captured by streptavidin-coated beads and detected by PE-conjugated anti-human β2-microglobulin on flow cytometry. […] No peptide was used in the negative control.

[4] = tested on: CD4^+ T cells in human PBMCs (HLA-A201^+); assay: Intracellular cytokine staining and multiparameter flow cytometry; assay type: cell-based; conditions: Day 12
Method: Human PBMCs were treated with Peptide 1 (SEQ ID NO: 1) at the concentrations of 0.4, 2, 10, 50, 250 nM for 12 days and then subject to intracellular cytokine staining and multiparameter flow cytometry.
Human PBMCs were treated with Peptide 12 (SEQ ID NO: 12) at the concentrations of 0.4, 2, 10, 50, 250 nM for 12 days and then subject to intracellular cytokine staining and multiparameter flow cytometry.
Intracellular cytokine staining and multiparameter flow cytometry. Around 1-2×10^5 human PBMCs (HLA-A201^+) ([…] Technologies Inc, Vancouver, British Columbia, Canada) were seeded onto 96-well microplate in X-VIVO 15 medium. […] The culture medium was refreshed every 5 days, and on the 12th day after treatment with the peptides, the cells were collected and stained with anti-CD4-PerCP-Cy5.5 conjugated, IFN-γ-FITC chrome conjugated, and IL4-PE chrome conjugated antibodies according to the manufacturer's instruction. After that, the cells were washed twice in cold FACS buffer, resuspended in FACS buffer, and analyzed in a flow cytometer ((BD LSRFortessa™X20, Franklin Lakes, N.J., U.S.).

[5] = tested on: Human SARS-CoV-2 Spike (trimer); assay: Immunization of mice, anti-spike IgG ELISA; assay type: in vivo; conditions: Day 41 vs Day -1, BALB/c mice

| Sequence | total IgG antibodies ([1]; intramuscular, 45 μg, Days 0, 14, 28, FIG. 5A) | total IgG, course over administrations ([1]; intramuscular, 45 μg, sera on Days -1, 13, 27, 41, FIG. 5A) | total IgG antibodies ([1]; oral, 200 μg formulated with 1% (v/v) PLCL-PEG-PLCL, Day 41 vs Day -1, FIG. 7A) | antigen specific cytotoxic T cells (CTLs) detected by MHC class I tetramer staining [2] | binding affinity for HLA-A201, times as high as that of CMVpp65495-503 (positive control) ([3]; 8.9 nM peptide, FIG. 1, mean fluorescence intensity of peptide-HLA complex) [times] | binding affinity for HLA-A201 compared with CMVpp65495-503 (positive control) ([3]; concentration of 3 nM and 8.9 nM, FIG. 1) | IL-4 secretion by T helper cells (CD4^+ cells) ([4]; 50 nM peptide) | IFN-γ secretion by T helper cells (CD4^+ cells) ([4]; 250 nM peptide) | anti-spike IgG antibodies ([5]; intramuscular, 45 μg, FIG. 5B, ***p<0.001) | anti-spike IgG antibodies ([5]; oral, 200 μg formulated with 1% (v/v) PLCL-PEG-PLCL, FIG. 7B, **p<0.01) |
| --- | --- | --- | --- | --- | --- | --- | --- | --- | --- | --- |
| KLNSGDSKV [Peptide 1] | induced total IgG antibodies | reaches to the plateau after second administration | induced total IgG antibodies | can be detected | 1.8 | higher binding affinity for HLA-A201 than CMVpp65495-503 | higher level | higher level | induced anti-spike IgG antibodies | induced anti-spike IgG antibodies |
| KLNSGLSKV [Peptide 12] | – | – | – | can be detected | – | – | – | – | – | – |
